The record followed here is patent US20050130989A1, “N-arylheteroaromatic products compositions containing them and use thereof” (Aventis Pharma S. A., priority 2003, published 2005).

The target in assay [1] is T1, tubulin (Sus scrofa, UniProt P02550+P02554).
T1 construct: Tubulin is purified from pig brain according to published methods; from tissue; host or cells: pig brain
Nature of the assay: Evaluation of the inhibition of tubulin polymerization (turbidimetry). The assay is classed as biochemical, pig. The settings on record: tubulin 10 μm (1 mg/ml), 37° C., turbidity at 350 nm; concentration that inhibits the rate of polymerization by 50%; read-out: Inhibition of tubulin polymerization IC 50 (μm). The method, boiled down:
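Pig brain tubulin (>95% pure), 10 μm in MES pH 6.8/30% glycerol buffer plus 1 mM GTP and 6 mM MgCl2, with compound at 0.5–10 μm added before polymerization. Polymerization triggered by shift from 6° C to 37° C, followed by turbidity at 350 nm; IC50 is 50% inhibition of polymerization rate.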

Assay [2] concerns HCT116 cells. Nature of the assay: Inhibition of proliferation of the human colon tumor line HCT116 ([14C]-thymidine incorporation). The assay is classed as cell-based. The note with it: Homo sapiens, HCT-116, 48 h, 48 hours at 37° C., read-out: Inhibition of HCT116 proliferation IC 50 (μm). The method in brief: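 HCT116 cells (5000/well) in DMEM with 10% fetal calf serum incubated 48 h at 37° C with [14C]-thymidine (0.1 μCi/well) and compound up to 10 μm (DMSO ≤0.5%). Incorporated radioactivity counted; IC50 is concentration cutting radioactivity by 50% versus untreated control.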

SMILES strings stand for the structures. Counter-ions that a name gives are not always drawn.

T1 sequence (P02550 whole entry): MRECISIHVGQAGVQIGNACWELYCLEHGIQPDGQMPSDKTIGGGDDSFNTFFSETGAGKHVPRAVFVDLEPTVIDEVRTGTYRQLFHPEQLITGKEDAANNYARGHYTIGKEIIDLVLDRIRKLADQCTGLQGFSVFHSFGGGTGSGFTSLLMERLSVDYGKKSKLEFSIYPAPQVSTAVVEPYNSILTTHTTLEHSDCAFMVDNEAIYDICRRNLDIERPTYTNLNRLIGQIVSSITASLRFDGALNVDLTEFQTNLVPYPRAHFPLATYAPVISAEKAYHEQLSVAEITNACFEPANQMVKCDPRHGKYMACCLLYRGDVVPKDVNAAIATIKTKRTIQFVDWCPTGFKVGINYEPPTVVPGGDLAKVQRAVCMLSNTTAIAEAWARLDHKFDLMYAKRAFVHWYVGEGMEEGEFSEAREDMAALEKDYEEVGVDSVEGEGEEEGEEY
T1 sequence (P02554 whole entry): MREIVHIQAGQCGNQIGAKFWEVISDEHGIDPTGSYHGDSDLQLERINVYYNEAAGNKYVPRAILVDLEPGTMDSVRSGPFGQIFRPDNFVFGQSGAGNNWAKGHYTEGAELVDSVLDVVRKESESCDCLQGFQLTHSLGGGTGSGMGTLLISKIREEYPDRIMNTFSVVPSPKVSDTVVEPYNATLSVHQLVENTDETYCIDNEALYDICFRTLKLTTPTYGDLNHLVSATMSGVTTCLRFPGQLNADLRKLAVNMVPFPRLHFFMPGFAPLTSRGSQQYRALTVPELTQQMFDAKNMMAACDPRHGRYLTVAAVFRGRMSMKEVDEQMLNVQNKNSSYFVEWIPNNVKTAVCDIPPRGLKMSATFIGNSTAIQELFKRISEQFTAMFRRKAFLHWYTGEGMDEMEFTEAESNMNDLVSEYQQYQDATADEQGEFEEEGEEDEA

With `Cc1cc(C(=O)N2CCN(c3cccc(C(=O)NCCO)c3)CC2)n(-c2ccccc2)n1` [Example E40, N-(2-Hydroxyethyl)-3-[4-(5-methyl-2-phenyl-2H-pyrazole-3-carbonyl)piperazin-1-yl]benzamide], the IC50 in assay [1] is 1600 nM; in assay [2], 118 nM.

Take `COc1ccc(Cl)cc1N1CCN(C(=O)c2cc(C)nn2-c2ccccc2F)CC1` [3/88]: the IC50 in assay [1] turned out to be 6000 nM; in assay [2] it was 60.5 nM.

For `Cc1cc(C(=O)N2CCN(c3cc(Cl)c(Br)cc3Br)CC2)n(-c2ccccc2)n1` [Example E79, [4-(2,4-Dibromo-5-chlorophenyl)piperazin-1-yl](5-methyl-2-phenyl-2H-pyrazol-3-yl)methanone], the IC50 in assay [1] turned out to be 2200 nM; in assay [2], 1040 nM.

Consider `CCc1ccccc1N1CCN(C(=O)c2cc(C)nn2-c2cccc(OC)c2)CC1` [3/136], for which the IC50 in assay [1] was determined as 12500 nM; in assay [2], 932 nM.

As to `Cc1cc(C(=O)N2CCN(c3ccccc3C(F)(F)F)CC2)n(-c2ccccc2F)n1` [3/145], the IC50 in assay [1] was 10000 nM; in assay [2] it was 1510 nM.

Consider `Cc1cc(C(=O)N2CCN(c3cccc(NCc4ccccc4)c3)CC2)n(-c2ccccc2)n1` [Example E32, [4-(3-Phenylmethylaminophenyl)piperazin-1-yl](5-methyl-2-phenyl-2H-pyrazol-3-yl)methanone hydrochloride], for which the results for the IC50 in assay [1] and in assay [2] were 3100 nM and 514 nM, respectively.

`Cc1cc(C(=O)N2CCN(c3ccccc3)CC2)n(-c2cccc(Cl)c2)n1` [3/40]: the values for the IC50 in assay [1] and in assay [2] were 3000 nM and 775 nM, respectively.

`CCc1ccccc1N1CCN(C(=O)c2cc(C)nn2-c2cccc(Cl)c2)CC1` [3/68]: the IC50 was determined as 1500 nM in assay [1] and 36 nM in assay [2].

`Cc1cc(C(=O)N2CCN(c3cccc(C(F)(F)F)c3)CC2)n(-c2ccccc2)n1` [3/8]: the IC50 in assay [1] is 6500 nM; in assay [2], 841 nM.

For the compound `Cc1cc(C(=O)N2CCN(c3cccc(C(F)(F)F)c3)CC2)n(-c2ccc(Cl)cc2)n1` [3/72], the IC50 in assay [1] amounted to 7000 nM; in assay [2], 143 nM.

As for `COc1ccc(Cl)cc1N1CCN(C(=O)c2cc(C)nn2-c2ccc(Cl)cc2)CC1` [3/75], the IC50 was found to be 17000 nM in assay [1] and 468 nM in assay [2].

For the compound `Cc1cc(C(=O)N2CCN(c3cccc(Cl)n3)CC2)n(-c2ccccc2)n1` [Example E4, [4-(6-Chloropyrid-2-yl)piperazin-1-yl](5-methyl-2-phenyl-2H-pyrazol-3-yl)-methanone], the IC50 in assay [1] amounted to 1300 nM; in assay [2], 4.7 nM.

Consider `COc1cc(OC)cc(N2CCN(C(=O)c3cc(CO)nn3-c3ccccc3)CC2)c1` [Example E73, [4-(3,5-Dimethoxyphenyl)piperazin-1-yl](3-hydroxymethyl-1-phenyl-1H-pyrazol-5-yl)methanone], for which the values for the IC50 in assay [1] and in assay [2] were 990 nM and 6.9 nM, respectively.

Take `Cc1cc(C(=O)N2CCN(c3cc(Cl)ccc3C)CC2)n(-c2cccc(F)c2)n1` [3/21]: the IC50 in assay [1] was 1800 nM; in assay [2], 469 nM.

Consider `Cc1cc(C(=O)N2CCN(c3cccc(Cl)c3)CC2)n(-c2cccc(F)c2)n1` [3/18], for which the IC50 in assay [1] was 2000 nM; in assay [2] it was 28 nM.

Consider `Cc1cc(C(=O)N2CCN(c3cccnc3)CC2)n(-c2ccccc2)n1` [3/153], for which the values for the IC50 in assay [1] and in assay [2] were 2200 nM and 22.4 nM, respectively.

Turning to `Cc1cccc(-n2nc(C)cc2C(=O)N2CCN(c3cccc(Cl)c3Cl)CC2)c1` [3/116], the figures for the IC50 in assay [1] and in assay [2] were 3000 nM and 141 nM, respectively.

Turning to `Cc1cc(C(=O)N2CCN(c3ccc(Br)c(Cl)c3)CC2)n(-c2ccccc2)n1` [Example E59, [4-(4-Bromo-3-chlorophenyl)piperazin-1-yl](5-methyl-2-phenyl-2H-pyrazol-3-yl)methanone], the IC50 in assay [1] amounted to 2100 nM; in assay [2], 104 nM.

Consider `O=C(c1ccnn1-c1ccccc1)N1CCN(c2cccc(Cl)c2)CC1` [Example 5, [4-(3-Chlorophenyl)piperazin-1-yl](2-phenyl-2H-pyrazol-3-yl)methanone], for which the IC50 turned out to be 1200 nM in assay [1] and 4.1 nM in assay [2].

For the compound `Cc1cc(C(=O)N2CCN(c3ccccc3)CC2)n(-c2cccc(F)c2)n1` [3/89], the IC50 came to 2200 nM in assay [1] and 14 nM in assay [2].

As for `COc1cccc(N2CCN(C(=O)c3cc(C)nn3-c3ccc(C)cc3)CC2)c1` [3/80], the IC50 is 5000 nM in assay [1] and 78 nM in assay [2].

For `Cc1cc(C(=O)N2CCN(c3cccc(-c4ccccc4)c3)CC2)n(-c2ccccc2)n1` [Example E24, [4-(Biphenyl-3-yl)piperazin-1-yl)(5-methyl-2-phenyl-2H-pyrazol-3-yl)methanone], the IC50 came to 1700 nM in assay [1] and 312 nM in assay [2].

With `O=C(c1cccn1-c1ccccc1)N1CCN(c2cccnc2)CC1` [Example E46, (1-Phenyl-1H-pyrrol-2-yl)[4-(pyrid-3-yl)piperazin-1-yl]methanone hydrochloride], the figures for the IC50 in assay [1] and in assay [2] were 14500 nM and 1240 nM, respectively.

On to `N#Cc1cccc(-n2nc(C(F)(F)F)cc2C(=O)N2CCN(c3cccc(Cl)c3)CC2)c1` [Example E55, 3-{5-[4-(3-Chlorophenyl)piperazine-1-carbonyl]-3-trifluoromethylpyrazol-1-yl}benzonitrile], for which the figures for the IC50 in assay [1] and in assay [2] were 3600 nM and 1340 nM, respectively.

On to `Cc1cccc(-n2nc(C)cc2C(=O)N2CCN(c3ccc4c(c3)OCCO4)CC2)c1` [3/56], for which the IC50 in assay [1] turned out to be 5000 nM; in assay [2], 139 nM.

For `Cc1cccc(-n2nc(C)cc2C(=O)N2CCN(c3ccccc3)CC2)c1` [3/44], the figures for the IC50 in assay [1] and in assay [2] were 2000 nM and 47 nM, respectively.

On to `Cc1cc(C(=O)N2CCN(c3ccc4c(c3)OCCO4)CC2)n(-c2ccccc2)n1` [3/14], for which the figures for the IC50 in assay [1] and in assay [2] were 15000 nM and 352 nM, respectively.

In the case of `CCOc1ccccc1N1CCN(C(=O)c2cc(C)nn2-c2cccc(F)c2)CC1` [3/98], the IC50 in assay [1] was determined as 7000 nM; in assay [2], 157 nM.

With `Cc1ccc(-n2nc(C)cc2C(=O)N2CCN(c3cccc(Cl)c3Cl)CC2)cc1` [3/132], the IC50 in assay [1] was determined as 20000 nM; in assay [2], 3100 nM.

In the case of `Cc1cc(C(=O)N2CCN(c3cccc(Cl)c3)CC2)n(-c2c(F)c(F)cc(F)c2F)n1` [Example E43, [4-(3-Chlorophenyl)piperazin-1-yl][5-methyl-2-(2,3,5,6-tetrafluorophenyl)-2H-pyrazol-3-yl]methanone], the IC50 was determined as 2170 nM in assay [1] and 1460 nM in assay [2].

Turning to `Cc1cc(C(=O)N2CCN(c3ccc(F)cc3)CC2)n(-c2ccccc2)n1` [3/41], the figures for the IC50 in assay [1] and in assay [2] were 6500 nM and 294 nM, respectively.

Turning to `CC(=O)Nc1cccc(N2CCN(C(=O)c3cc(C)nn3-c3ccccc3)CC2)c1` [Example E18, N-{3-[4-(5-methyl-2-phenyl-2H-pyrazole-3-carbonyl)piperazin-1-yl]phenyl}-acetamide], the IC50 is 1200 nM in assay [1] and 59.5 nM in assay [2].

On to `COc1ccccc1N1CCN(C(=O)c2cc(C)nn2-c2ccccc2)CC1` [3/7], for which the IC50 in assay [1] is 5600 nM; in assay [2], 40 nM.

As for `CCc1ccccc1N1CCN(C(=O)c2cc(C)nn2-c2cccc(F)c2)CC1` [3/95], the IC50 was 3000 nM in assay [1] and 164 nM in assay [2].

`Cc1cccc(-n2nc(C)cc2C(=O)N2CCN(c3cccc4ccccc34)CC2)c1` [3/32]: the IC50 stood at 3000 nM in assay [1] and 556 nM in assay [2].

For the compound `COc1cc(OC)cc(N2CCN(C(=O)c3cc(/C=C/c4ccc(F)cc4)nn3-c3ccccc3)CC2)c1` [Example E87, [4-(3,5-Dimethoxyphenyl)piperazin-1-yl]-{5-[E-2-(4-fluorophenyl)vinyl]-2-phenyl-2H-pyrazol-3-yl}methanone], the IC50 in assay [1] came to 1260 nM; in assay [2], 1280 nM.

For the compound `COc1ccc(Cl)cc1N1CCN(C(=O)c2cc(C)nn2-c2ccc(F)cc2)CC1` [3/60], the IC50 in assay [1] was determined as 1300 nM; in assay [2] it was 8.6 nM.

With `Cc1cc(C(=O)N2CCN(c3cccc(C)c3C)CC2)n(-c2ccccc2)n1` [3/9], the figures for the IC50 in assay [1] and in assay [2] were 7000 nM and 494 nM, respectively.

With `Cc1cc(C(=O)N2CCN(c3ccccc3C)CC2)n(-c2ccccc2F)n1` [3/87], the IC50 in assay [1] was 15000 nM; in assay [2] it was 238 nM.

In the case of `CCc1ccccc1N1CCN(C(=O)c2cc(C)nn2-c2ccccc2F)CC1` [3/142], the IC50 in assay [1] was determined as 3800 nM; in assay [2] it was 110 nM.

With `COc1cccc(N2CCN(C(=O)c3cc(C)nn3-c3ccc(Cl)cc3)CC2)c1` [3/73], the IC50 in assay [1] was determined as 2500 nM; in assay [2], 111 nM.

As for `CSc1ccccc1N1CCN(C(=O)c2cc(C)nn2-c2cccc(C)c2)CC1` [3/51], the IC50 was 2000 nM in assay [1] and 37 nM in assay [2].

On to `Cc1cc(C(=O)N2CCN(c3ccccc3)CC2)n(-c2ccccn2)n1` [Example E21, (5-Methyl-2-pyrid-2-yl-2H-pyrazol-3-yl)(4-phenylpiperazin-1-yl)methanone], for which the figures for the IC50 in assay [1] and in assay [2] were 9500 nM and 198 nM, respectively.

As to `Cc1cccc(-n2nc(C)cc2C(=O)N2CCN(c3ccccc3C)CC2)c1` [3/48], the IC50 in assay [1] was 5000 nM; in assay [2], 118 nM.

In the case of `COc1cc(OC)cc(N2CCN(C(=O)c3cccn3-c3ccccc3)CC2)c1` [Example E51, [4-(3,5-Dimethoxyphenyl)piperazin-1-yl](1-phenyl-1H-pyrrol-2-yl)methanone hydrochloride], the IC50 worked out at 1300 nM in assay [1] and 2300 nM in assay [2].
